Laboratory results reported in patent US9028856B2, “Synergistic pesticide compositions” (priority 2008, dated 2015).

Legend:
[1] = test system: Odorous House ant, Tapinoma sessile; assay: Knockdown/mortality of ant workers under continuous exposure on treated glazed tile; assay type: in vivo
Method in brief: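 Treatments applied to about 161 cm2 glazed tile and dried overnight, with at least three replicates.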

[2] = test system: tropical house mosquito Culex quinquefasciatus (adults, 3 days old); assay: Efficacy of formulations on surfaces (glazed/unglazed tiles, plywood), ten 3 day old mosquitoes, 3 min exposure; assay type: in vivo; details: EC formulation, 3 minutes exposure
Method in brief: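 Test agents in acetone, 1 ml pipetted onto 15×15 cm glazed tiles (plywood/unglazed tiles also used; 1 cm edge untreated). USDA Petri Dish Method: ten 3-day-old adults held 3 min under a perforated dish, then given a water-soaked cotton pad. Knock-down scored 3 min–4 h, mortality at 24 h; mean of three batches.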

[3] = test system: Musca domestica, resistant strain Reichswald; assay: Efficacy of formulations on surfaces (glazed/unglazed tiles), house flies, continuous exposure; assay type: in vivo; details: for % KD and Mortality 15′ / % KD and Mortality 30′ / % KD and Mortality 1 h / % KD and Mortality 2 h / % KD and Mortality 3 h / % KD and Mortality 4 h / % KD and Mortality 6 h / % KD and Mortality 24 h: Table 115, EC formulation, continuous exposure
Procedure: All surfaces were provided with talcum-coated glass rings (diameter 9.5 cm, height 5.5 cm) one day later.
The test insects were anesthetized with CO2, 20 individuals were placed onto the treated surfaces and the glass ring was covered with wire gauze ring. […]
Each test consisted of at least one replicate and any additional replicates are noted.
Test Insects: House flies (Musca domestica) of both sexes, susceptible strain WHO(N) and resistant strain Reichswald
Evaluation: Mortality was evaluated cumulatively at different times. […]
Test Insects: Culex quinquefasciatus (adults) (3 minutes exposure time according to USDA Petri Dish Method), Musca domestica (adults), susceptible and resistant strain, Blattella germanica (males), Cimex lectularius (adults) (all: continuous exposure time)
Application: The EC formulation (diluted with water 1:9) were applied as 0.85 ml solutions onto glazed tiles (15 cm×15 cm)

[4] = test system: Argentine ant, Linepithema humile; assay: Knockdown/mortality of ant workers under continuous exposure on treated glazed tile; details: glazed tile
Method in brief: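 0.5% AI imidacloprid in acetone, alone or with 0.1, 1.0 or 5.0% additive (benzenepropanoic acid, oleic acid, methyl oleate, methyl linoleate, methyl palmitate or BHA), 1 ml dried overnight on glazed tile (~161 cm^2). Ten workers confined under continuous exposure, water from 3 h; knockdown/mortality scored at intervals and 24 h; ≥3 replicates.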

[5] = 0.1% = 50 mg Bendiocarb/m^2 on glazed tiles
[6] = Table 4 (Ex. 1), continuous exposure
[7] = Table 7 (Ex. 4), continuous exposure
[8] = Table 8 (Ex. 5), continuous exposure
[9] = Table 10 (Ex. 7), continuous exposure
[10] = Table 12 (Ex. 9), continuous exposure
[11] = Table 14 (Ex. 11), continuous exposure
[12] = Table 16 (Ex. 13), continuous exposure
[13] = Table 19 (Ex. 16), continuous exposure
[14] = Table 20 (Ex. 17), continuous exposure
[15] = 0.1% = 50 mg imidacloprid/m^2 on glazed tiles
[16] = Table 46, Trial 1, fipronil/Compound A in acetone
[17] = Table 49, fipronil/adjuvant in acetone
[18] = 2 hr, Table 46, Trial 1, fipronil/Compound A in acetone
[19] = 2 hr, Table 49, fipronil/adjuvant in acetone
[20] = 4 hr, Table 46, Trial 1, fipronil/Compound A in acetone
[21] = 30 min, Table 51, fipronil/adjuvant in acetone, glazed tile
[22] = 60 min, Table 51, fipronil/adjuvant in acetone, glazed tile
[23] = 2 hr, Table 51, fipronil/adjuvant in acetone, glazed tile
[24] = Table 51, fipronil/adjuvant in acetone, glazed tile
[25] = Table 47, Trial 2, fipronil/Compound A in acetone
[26] = Table 57, Argentine ant, continuous exposure
[27] = 0.02% = 10 mg Ethiprole/m^2 on glazed tiles
[28] = Table 27, aqueous deltamethrin/adjuvant

CNC(=O)Oc1cccc2c1OC(C)(C)O2 [bendiocarb]
toxicity / efficacy of the substance alone (summary in words) ([1]; odorous house ant, glazed tile): no KD/mortality | % KD and Mortality 15′ [2, 5]: 0% | % KD and Mortality 30′ [2, 5]: 0% | % KD and Mortality 1 h [2, 5]: 80% | % KD and Mortality 2 h [2, 5]: 100% | % KD and Mortality 3 h [2, 5]: 100% | % KD and Mortality 4 h [2, 5]: 100% | % KD and Mortality 6 h [2, 5]: 100% | % KD and Mortality 24 h [2, 5]: 100% | % KD and Mortality 15′ [3, 5]: 0% | % KD and Mortality 30′ [3, 5]: 0% | % KD and Mortality 1 h [3, 5]: 0% | % KD and Mortality 2 h [3, 5]: 0% | % KD and Mortality 3 h [3, 5]: 0% | % KD and Mortality 4 h [3, 5]: 0% | % KD and Mortality 6 h [3, 5]: 0% | % KD and Mortality 24 h [3, 5]: 5%

O=[N+]([O-])NC1=NCCN1Cc1ccc(Cl)nc1 [imidacloprid]
Average % Knockdown & Mortality after 2 hr ([4]; 2 hr, Table 22, imidacloprid/tritylchloride in acetone, continuous exposure): 0% | Average % Knockdown & Mortality after 2 hr ([4]; 2 hr, Table 25, imidacloprid/dibutyl sebacate (DBS) in acetone): 0% | Average % Knockdown & Mortality after 4 hr ([4]; 4 hr, Table 25, imidacloprid/dibutyl sebacate (DBS) in acetone): 0% | Average % Knockdown & Mortality after 5 hr ([4]; 5 hr, Table 22, imidacloprid/tritylchloride in acetone, continuous exposure): 4% | Average % Knockdown & Mortality after 3 hr [4, 6]: 0% | Average % Knockdown & Mortality after 7 hr [4, 6]: 0% | Average % Knockdown & Mortality after 3 hr [4, 7]: 3% | Average % Knockdown & Mortality after 7 hr [4, 7]: 3% | Average % Knockdown & Mortality after 15 min [4, 8]: 0% | Average % Knockdown & Mortality after 4 hr [4, 8]: 7% | Average % Knockdown & Mortality after 15 min [4, 9]: 0% | Average % Knockdown & Mortality after 4 hr [4, 9]: 0% | Average % Knockdown & Mortality after 3 hr [4, 10]: 0% | Average % Knockdown & Mortality after 7 hr [4, 10]: 0% | Average % Knockdown & Mortality after 2 hr [4, 11]: 0% | Average % Knockdown & Mortality after 4 hr [4, 11]: 0% | Average % Knockdown & Mortality after 2 hr [4, 12]: 14% | Average % Knockdown & Mortality after 18 hr [4, 12]: 17% | Average % Knockdown & Mortality after 4 hr [4, 13]: 0% | Average % Knockdown & Mortality after 6 hr [4, 13]: 7% | Average % Knockdown & Mortality after 2 hr [4, 14]: 0% | Average % Knockdown & Mortality after 4 hr [4, 14]: 7% | % KD and Mortality 15′ [2, 15]: 0% | % KD and Mortality 30′ [2, 15]: 0% | % KD and Mortality 1 h [2, 15]: 0% | % KD and Mortality 2 h [2, 15]: 10% | % KD and Mortality 3 h [2, 15]: 20% | % KD and Mortality 4 h [2, 15]: 20% | % KD and Mortality 6 h [2, 15]: 20% | % KD and Mortality 24 h [2, 15]: 100% | % KD and Mortality 15′ [3, 15]: 5% | % KD and Mortality 30′ [3, 15]: 5% | % KD and Mortality 1 h [3, 15]: 5% | % KD and Mortality 2 h [3, 15]: 5% | % KD and Mortality 3 h [3, 15]: 5% | % KD and Mortality 4 h [3, 15]: 5% | % KD and Mortality 6 h [3, 15]: 5% | % KD and Mortality 24 h [3, 15]: 20%

N#Cc1nn(-c2c(Cl)cc(C(F)(F)F)cc2Cl)c(N)c1[S+]([O-])C(F)(F)F (stereo not drawn) [Fipronil (.01%)]
Average % Mortality after 5 min [4, 16]: 0% | Average % Mortality after 15 min [4, 16]: 0% | Average % Mortality after 30 min [4, 16]: 0% | Average % Mortality after 30 min [4, 17]: 0% | Average % Mortality after 60 min [4, 16]: 0% | Average % Mortality after 60 min [4, 17]: 0% | Average % Mortality after 2 hr [4, 18]: 0% | Average % Mortality after 2 hr [4, 19]: 0% | Average % Mortality after 3 hr [4, 17]: 0% | Average % Mortality after 4 hr [4, 20]: 47% | Average % Mortality after 24 hr [4, 16]: 100% | Average % Mortality after 24 hr [4, 17]: 100% | Average % Mortality after 30 min [1, 21]: 0% | Average % Mortality after 60 min [1, 22]: 0% | Average % Mortality after 2 hr [1, 23]: 6% | Average % Mortality after 24 hr [1, 24]: 100%

N#Cc1nn(-c2c(Cl)cc(C(F)(F)F)cc2Cl)c(N)c1[S+]([O-])C(F)(F)F (stereo not drawn) [Fipronil (.001%)]
Average % Mortality after 5 min [4, 16]: 0% | Average % Mortality after 5 min [4, 25]: 0% | Average % Mortality after 15 min [4, 16]: 0% | Average % Mortality after 15 min [4, 25]: 0% | Average % Mortality after 30 min [4, 16]: 0% | Average % Mortality after 30 min [4, 25]: 0% | Average % Mortality after 30 min [4, 17]: 0% | Average % Mortality after 60 min [4, 16]: 0% | Average % Mortality after 60 min [4, 25]: 0% | Average % Mortality after 60 min [4, 17]: 0% | Average % Mortality after 2 hr [4, 18]: 0% | Average % Mortality after 2 hr ([4]; 2 hr, Table 47, Trial 2, fipronil/Compound A in acetone): 0% | Average % Mortality after 2 hr [4, 19]: 0% | Average % Mortality after 3 hr [4, 17]: 3% | Average % Mortality after 4 hr [4, 20]: 74% | Average % Mortality after 4 hr ([4]; 4 hr, Table 47, Trial 2, fipronil/Compound A in acetone): 28% | Average % Mortality after 24 hr [4, 16]: 100% | Average % Mortality after 24 hr [4, 25]: 100% | Average % Mortality after 24 hr [4, 17]: 100% | Average % Mortality after 30 min [1, 21]: 0% | Average % Mortality after 60 min [1, 22]: 0% | Average % Mortality after 2 hr [1, 23]: 0% | Average % Mortality after 24 hr [1, 24]: 100%

CC[S+]([O-])c1c(C#N)nn(-c2c(Cl)cc(C(F)(F)F)cc2Cl)c1N (stereo not drawn) [Ethiprole (1%)]
Average % Mortality after 30 min [4, 26]: 0% | Average % Mortality after 45 min ([4]; Table 57, Argentine ant, continuous exposure, 45 min): 0% | Average % Mortality after 60 min [4, 26]: 0% | Average % Mortality after 15 min ([4]; Table 57, Argentine ant, continuous exposure, adjuvant = Compound A 1% + Compound B 0.5%): 0% | Average % Knockdown & Mortality after 30 min ([1]; Table 59, Odorous House ant, glazed tile, continuous exposure, 30 min): 0% | Average % Knockdown & Mortality after 45 min ([1]; Table 59, Odorous House ant, glazed tile, continuous exposure, 45 min): 0% | Average % Knockdown & Mortality after 60 min ([1]; Table 59, Odorous House ant, glazed tile, continuous exposure, 60 min): 3% | Average % Knockdown & Mortality after 2 hr ([1]; Table 59, Odorous House ant, glazed tile, continuous exposure, 2 hr): 7% | Average % Knockdown & Mortality after 15 min ([1]; Table 59, Odorous House ant, glazed tile, continuous exposure, adjuvant = Compound A 1% + Compound B 0.5%, 15 min): 0%

CC[S+]([O-])c1c(C#N)nn(-c2c(Cl)cc(C(F)(F)F)cc2Cl)c1N (stereo not drawn) [ethiprole]
mortality in 2 hours ([1]; ethiprole 0.01% in the absence of the adjuvant (FIG. 53)): around 4% | % KD and Mortality 15′ [2, 27]: 0% | % KD and Mortality 30′ [2, 27]: 0% | % KD and Mortality 1 h [2, 27]: 0% | % KD and Mortality 2 h [2, 27]: 10% | % KD and Mortality 3 h [2, 27]: 10% | % KD and Mortality 4 h [2, 27]: 10% | % KD and Mortality 6 h [2, 27]: 10% | % KD and Mortality 24 h [2, 27]: 60% | % KD and Mortality 15′ [3, 27]: 0% | % KD and Mortality 30′ [3, 27]: 0% | % KD and Mortality 1 h [3, 27]: 0% | % KD and Mortality 2 h [3, 27]: 0% | % KD and Mortality 3 h [3, 27]: 0% | % KD and Mortality 4 h [3, 27]: 10% | % KD and Mortality 6 h [3, 27]: 15% | % KD and Mortality 24 h [3, 27]: 60%

CC1(C)[C@H](C(=O)O[C@H](C#N)c2cccc(Oc3ccccc3)c2)[C@@H]1C=C(Br)Br [deltamethrin]
% of the flies killed after 24 h ([3]; 0.02% deltamethrin in acetone on glazed tiles, with or without 1% Compound A + 0.5% Compound B): 7%

CC1(C)[C@H](C(=O)O[C@H](C#N)c2cccc(Oc3ccccc3)c2)[C@@H]1C=C(Br)Br [deltamethrin (1%)]
Average % Mortality after 10 min ([4]; 10 min, Table 27, aqueous deltamethrin/adjuvant): 9% | Average % Mortality after 15 min [4, 28]: 33% | Average % Mortality after 20 min ([4]; 20 min, Table 27, aqueous deltamethrin/adjuvant): 67% | Average % Mortality after 30 min [4, 28]: 82% | Average % Mortality after 20 min ([1]; 20 min, Table 30, aqueous deltamethrin/adjuvant, glazed tile): 43% | Average % Mortality after 60 min ([1]; 60 min, Table 30, aqueous deltamethrin/adjuvant, glazed tile): 80% | Average % Mortality after 90 min ([1]; 90 min, Table 30, aqueous deltamethrin/adjuvant, glazed tile): 90% | Average % Mortality after 2 hr ([1]; 2 hr, Table 30, aqueous deltamethrin/adjuvant, glazed tile): 93%
